Results taken from the supplement of paper PMC10307832.

Tests used:
Assay in all cases: relative viability (nuclei count vs DMSO), 5 days (fraction); higher = more cells survive
[1] = compound: CC1=CC=C(C=C1)C(=O)CN2C3=C(CCCC3)SC2=N [Pifithrin_alpha] + Nc1nc2[nH]cc(CCc3ccc(C(=O)N[C@@H](CCC(=O)O)C(=O)O)cc3)c2c(=O)[nH]1 [Pemetrexed] (partner 0.2 µM)
Summary of the method: (§1)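 After 5 days of treatment, lung cancer cells in 1536-well plates were fixed and stained in a single step (final 0.05% Triton X-100, 1% formaldehyde, 1 ug/ml Hoechst) and their nuclei counted on 4× images. Treatment had been applied by pin tool the day after seeding as one drug alone or as a fixed anchor-drug dose with five library-drug doses (not always all listed) in √10 steps. Relative viability is the nuclei count of treated wells divided by that of vehicle wells, and values are medians of duplicate plates.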

Bemcentinib + Alpelisib = compound: Nc1nc(Nc2ccc3c(c2)CC[C@@H](N2CCCC2)CC3)nn1-c1cc2c(nn1)-c1ccccc1CCC2 [Bemcentinib] + Cc1nc(NC(=O)N2CCC[C@H]2C(N)=O)sc1-c1ccnc(C(C)(C)C(F)(F)F)c1 [Alpelisib] (partner 2 µM)
Summary of the method: as §1

[2] = compound: CC1=CC=C(C=C1)C(=O)CN2C3=C(CCCC3)SC2=N [Pifithrin_alpha] + CC(=O)Nc1cccc(-n2c(=O)n(C3CC3)c(=O)c3c(Nc4ccc(I)cc4F)n(C)c(=O)c(C)c32)c1 [Trametinib] (partner 0.02 µM)
Summary of the method: as §1

Bemcentinib + Decitabine = compound: Nc1nc(Nc2ccc3c(c2)CC[C@@H](N2CCCC2)CC3)nn1-c1cc2c(nn1)-c1ccccc1CCC2 [Bemcentinib] + Nc1ncn([C@H]2C[C@H](O)[C@@H](CO)O2)c(=O)n1 [Decitabine] (partner 2 µM)
Summary of the method: as §1

| Cell Line | relative viability ([1]; first compound 1 µM) | relative viability ([1]; first compound 3.162 µM) | relative viability ([1]; first compound 10 µM) | relative viability ([1]; first compound 31.62 µM) | relative viability ([1]; first compound 100 µM) | relative viability (Bemcentinib + Alpelisib; first compound 0.04 µM) | relative viability (Bemcentinib + Alpelisib; first compound 0.1265 µM) | relative viability (Bemcentinib + Alpelisib; first compound 0.4 µM) | relative viability (Bemcentinib + Alpelisib; first compound 1.265 µM) | relative viability (Bemcentinib + Alpelisib; first compound 4 µM) | relative viability ([2]; first compound 3.162 µM) | relative viability ([2]; first compound 31.62 µM) | relative viability ([2]; first compound 100 µM) | relative viability (Bemcentinib + Decitabine; first compound 0.04 µM) | relative viability (Bemcentinib + Decitabine; first compound 0.1265 µM) | relative viability (Bemcentinib + Decitabine; first compound 0.4 µM) | relative viability (Bemcentinib + Decitabine; first compound 1.265 µM) | relative viability (Bemcentinib + Decitabine; first compound 4 µM) | relative viability ([2]; first compound 1 µM) | relative viability ([2]; first compound 10 µM) |
| --- | --- | --- | --- | --- | --- | --- | --- | --- | --- | --- | --- | --- | --- | --- | --- | --- | --- | --- | --- | --- |
| NCI-H1563 | 0.54 | 0.813 | 0.817 | 0.769 | 0.749 | 0.93 | 1.07 | 0.943 | 0.926 | 0.839 |  |  |  |  |  |  |  |  |  |  |
| EMC-BAC-2 | 0.443 | 0.435 | 0.416 | 0.383 | 0.418 | 0.833 | 0.756 | 0.817 | 0.788 | 0.803 | 0.89 | 0.706 | 0.794 | 0.955 | 1 | 1.12 | 0.997 | 1.01 |  |  |
| NCI-H596 | 0.523 | 0.468 | 0.513 | 0.498 | 0.483 | 0.574 | 0.612 | 0.524 | 0.537 | 0.392 | 0.675 | 0.587 | 0.675 | 1 | 1.04 | 1.09 | 1.1 | 1.08 | 0.762 | 0.76 |
| NCI-H2009 | 0.985 | 1.01 | 0.949 | 0.702 | 0.944 | 1.23 | 1.2 | 1.24 | 1.2 | 1.16 | 0.265 | 0.218 | 0.234 | 0.404 | 0.353 | 0.492 | 0.399 | 0.434 | 0.26 | 0.253 |
| HOP-62 | 0.209 | 0.4 | 0.38 | 0.304 | 0.441 | 0.914 | 0.831 |  | 1.19 | 0.747 | 0.377 | 0.361 | 0.335 | 0.25 | 0.198 | 0.255 | 0.207 | 0.216 | 0.343 | 0.368 |
| NCI-H2126 | 0.448 | 0.656 | 0.625 | 0.56 | 0.643 | 0.799 | 0.772 | 0.669 | 0.768 | 0.786 | 0.503 | 0.445 | 0.452 | 0.582 | 0.588 | 0.601 | 0.634 | 0.557 | 0.456 | 0.487 |
| HCC-15 | 0.225 | 0.206 | 0.207 | 0.206 | 0.209 | 0.886 | 0.945 | 0.97 | 0.92 | 0.889 | 0.33 | 0.315 | 0.256 | 0.641 | 0.696 | 0.71 | 0.646 | 0.661 | 0.373 | 0.348 |
| NCI-H23 | 0.679 | 0.609 | 0.734 | 0.479 | 0.547 | 0.725 | 0.745 | 0.814 | 0.758 | 0.806 | 0.314 | 0.353 | 0.358 | 0.305 | 0.302 | 0.297 | 0.31 | 0.328 | 0.288 | 0.447 |
| LCLC-97TM1 |  | 0.184 | 0.183 |  | 0.15 | 0.313 | 0.226 |  | 0.289 | 0.265 | 0.167 |  | 0.18 | 0.248 | 0.212 | 0.217 | 0.207 | 0.252 |  | 0.191 |
| SW 1573 |  | 1.03 | 0.964 | 0.593 | 0.808 | 0.716 | 0.803 | 0.909 | 0.886 | 0.88 | 0.619 | 0.341 | 0.31 | 0.427 | 0.55 | 0.595 | 0.544 | 0.468 |  | 0.567 |
| EKVX | 0.514 | 0.352 | 0.37 | 0.266 | 0.316 | 0.913 | 1.01 | 0.929 | 0.973 | 0.972 | 0.532 | 0.28 | 0.21 | 0.325 | 0.345 | 0.292 | 0.345 | 0.39 | 0.394 | 0.269 |
| HCC-44 | 0.56 | 0.584 | 0.667 | 0.519 | 0.574 | 0.875 | 0.911 | 0.939 | 0.967 | 1.05 | 0.846 | 0.786 | 0.747 | 0.954 | 0.986 | 0.947 | 0.978 | 0.957 | 0.945 | 0.727 |
| NCI-H1651 | 0.211 | 0.632 | 0.553 | 0.539 | 0.666 | 0.935 | 1.01 | 1.12 | 0.964 | 1.02 | 0.821 | 0.851 | 0.958 | 0.588 | 0.623 | 0.678 | 0.491 | 0.584 | 0.833 | 0.863 |
| COR-L23 | 0.19 | 0.201 | 0.196 |  | 0.181 | 0.874 | 0.778 | 0.965 | 0.9 | 0.904 | 0.709 |  | 0.539 | 0.465 | 0.467 | 0.481 | 0.472 | 0.456 | 0.517 | 0.638 |
| NCI-H1299 |  |  |  |  |  | 1.1 | 1.07 | 1.09 | 1.1 | 1.08 |  |  |  |  |  |  |  |  |  |  |
| NCI-H1734 | 0.452 | 0.434 | 0.428 | 0.367 | 0.358 | 1.04 | 0.74 | 0.718 | 0.372 | 0.514 | 0.769 | 0.623 | 0.666 | 0.401 | 0.533 | 0.595 | 0.472 | 0.447 | 0.716 | 0.648 |
| NCI-H1793 | 0.538 | 0.79 | 0.888 | 0.671 | 0.695 | 0.684 | 0.927 | 0.691 | 0.742 | 0.66 | 0.371 | 0.496 | 0.437 | 0.475 | 0.495 | 0.5 | 0.549 | 0.586 | 0.419 | 0.365 |
| NCI-H522 | 0.805 | 0.978 | 1.02 | 0.796 | 1.05 |  |  |  |  |  | 0.754 | 0.693 | 0.618 | 0.759 | 0.789 | 0.657 | 0.558 | 0.619 | 0.61 | 0.743 |
